Read-outs that look alike come from different tables or passages of the source.
Legend:
HSV = settings: read-out: anti-HSV activity EC50 range; range over HSV-1 and HSV-2 strains; CPE in HEL cells
[1] = test system: HIV-1 UG270 (clinical isolate; X4); settings: PBMCs; UG270, group M subtype D; p24 Ag ELISA
[2] = test system: HSV-1 TK^- RV-294 (clinical isolate); settings: HEL cells, CPE
[3] = test system: HIV-1 UG273 (clinical isolate; R5); settings: PBMCs; UG273, group M subtype A; p24 Ag ELISA
X4 HIV-1 gp120 IIIB = target: T1, X4 HIV-1 gp120 IIIB (Human immunodeficiency virus type 1 group M subtype B, UniProt P04578); assay: Surface plasmon resonance; assay type: binding
T1 construct: Recombinant gp120 proteins from X4 HIV-1 IIIB strain; purchased ImmunoDiagnostics Inc., Woburn, MA
Method: (§1) Recombinant gp120 proteins from X4 HIV-1 IIIB strain (ImmunoDiagnostics Inc., Woburn, MA) and from R5 HIV-1 strains ADA and YU2 (ImmunoDiagnostics Inc.) were covalently immobilized on a CM5 sensor chip in 10 mM sodium acetate, pH 4.0, using standard amine coupling chemistry. […] A reference flow cell was used as a control for non-specific binding and refractive index changes. […] Samples (in duplicate) were injected for 2 minutes at a flow rate of 45 µl/min and the dissociation was followed for 4 minutes. Several buffer blanks were used for double referencing. The CM5 sensor chip surface was regenerated with a single injection of 50 mM NaOH. A DMSO concentration series was included to eliminate the contribution of DMSO to the measured response. […] The experimental data were fit using the 1∶1 binding model Biacore T200 Evaluation software 1.0 to determine the binding kinetics.

R5 HIV-1 gp120 YU2 = target: T2, R5 HIV-1 gp120 YU2 (Human immunodeficiency virus type 1 group M subtype B, UniProt P35961); assay: Surface plasmon resonance; assay type: binding
T2 construct: Recombinant gp120 proteins from X4 HIV-1 IIIB strain (ImmunoDiagnostics Inc., Woburn, MA) and from R5 HIV-1 strains ADA and YU2; purchased ImmunoDiagnostics Inc
Method: as §1

PBMCs = assay: Bio-Plex cytokine/chemokine detection assay; assay type: cell-based; settings: 24 h; 9.6 µM LabyA1 versus 0.078 µM PHA; 27-plex
Method: Freshly isolated PBMCs from 4 individual donors were incubated for 24 h with 9.6 µM LabyA1 or 0.078 µM PHA. The cytokine/chemokine concentration in the cell culture supernatant was determined by the Bio-Plex 200 System (Bio-Rad, Hercules, CA) using the Bio-Plex Human Cytokine 27-Plex assay as described earlier.

HSV-1 TK^- = settings: read-out: Median EC50; median over HSV-1 TK- strains; HEL cells
[4] = test system: HSV-1 wild-type RV-174 (clinical isolate); settings: HEL cells; HSV-1 RV-174; CPE
[5] = test system: HIV-1 NPO3 (clinical isolate; X4); settings: PBMCs; NPO3, group M subtype E; p24 Ag ELISA
[6] = Cytotoxicity assay (MTS/PES); assay type: cell-based, human; settings: HEL cells, 3 days
Method: Cytotoxicity in PBMCs (3 days), MT-4 (5 days), HUT-78 (1 day), C8166-(5 days), HEL (3 days) and Daudi cells (3 days) was measured using the MTS/PES method. The duration of the assays is given between brackets.

[7] = test system: DC-SIGN-mediated transmission of HIV-1 HE; settings: for p24 Ag concentration: without compound 263.9 ng/ml
Method: Raji.DC-SIGN^+ cells (200 µl; 2.5×10^6 cells/ml) were exposed to high amounts of HIV-1 HE (100 µl; p24, ∼3×10^6 pg/ml) for 1 h at 37°C. Unbound virus from the Raji.DC-SIGN^+ cells was removed by washing twice with cell culture medium. In the meantime, 100 µl of various concentrations of LabyA1 were added in a 96-well plate and incubated for 1 h with the C8166 target T cells (50 µl; 2×10^6 cells/ml). The same amount of virus exposed Raji.DC-SIGN^+ cells (Raji.DC-SIGN/HE) were mixed with the antiviral drug exposed C8166 target T cells.

CXCR4 = CXCR4 (Homo sapiens, UniProt P61073); assay: Intracellular calcium mobilization (FLIPR), U87.CD4.CXCR4 cells; assay type: cell-based; set-up: expressed in transfected cells; host or cells: U87.CD4.CXCR4 (human astroglioma U87); settings: 9.6 µM
CXCR4, sequence (P61073 whole entry): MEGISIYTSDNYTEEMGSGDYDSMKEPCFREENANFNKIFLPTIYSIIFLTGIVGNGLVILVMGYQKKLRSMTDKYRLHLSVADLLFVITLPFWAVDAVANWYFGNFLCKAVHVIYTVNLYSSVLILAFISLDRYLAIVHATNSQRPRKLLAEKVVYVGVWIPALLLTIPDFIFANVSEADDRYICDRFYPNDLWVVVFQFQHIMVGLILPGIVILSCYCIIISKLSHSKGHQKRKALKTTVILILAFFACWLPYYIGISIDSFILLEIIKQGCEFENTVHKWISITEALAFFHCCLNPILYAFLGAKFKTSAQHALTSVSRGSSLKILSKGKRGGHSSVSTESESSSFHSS
Method: Calcium (Ca^2+) mobilization assays were performed by the use of a fluorometric imaging plate reader (FLIPR) (Molecular Devices, Sunnyvale, CA) as described previously. Briefly, U87.CD4.CCR5 or U87.CD4.CXCR4 cells were digested by trypsin and seeded in gelatine-coated black-wall 96-well microplates at 2×10^4 cells per well. The next day, the cells were loaded with the fluorescent calcium indicator Fluo-3 acetoxymethyl ester (Molecular Probes, Leiden, The Netherlands) at 4 µM for 45 min at 37°C. Cells were washed 3 times in assay buffer (Hanks’ balanced salt solution with 20 mM HEPES buffer and 0.2% bovine serum albumin, pH 7.4) and incubated for 10 min with Laby A1. The intracellular calcium mobilization induced by LD78β in U87.CD4.CCR5 cells or by SDF-1 in U87.CD4.CXCR4 cells was then measured at 37°C by monitoring the fluorescence as a function of time simultaneously in all the wells. In addition, potential intracellular calcium mobilization induced by Laby A1 was also investigated.

[8] = test system: HIV-1 ETH2220 (clinical isolate; R5); settings: PBMCs; ETH2220, group M subtype C; p24 Ag ELISA
HIV-2 ROD (R5/X4) = settings: read-out: EC50 (µM ± SEM), MT-4 cells, MTS/PES method

With `C/C=C1\NC(=O)[C@H](Cc2ccccc2)NC(=O)[C@@H]2CCCN2C(=O)[C@H](C(C)C)NC(=O)[C@H](Cc2c[nH]c3ccccc23)NC(=O)[C@]23CSC[C@H](NC1=O)C(=O)N[C@H](C(=O)O)CSSC[C@H](NC(=O)[C@@H]1CSC[C@]4(C[C@H](N)C(=O)N[C@@H](CC(N)=O)C(=O)N[C@@H](C)C(=O)N4)C(=O)N[C@@H](C(C)C)C(=O)N[C@@H](Cc4c[nH]c5ccccc45)C(=O)N[C@@H](CCC(=O)O)C(=O)N1)C(=O)N[C@@H](C2)C(=O)N[C@@H]([C@@H](C)O)C(=O)NCC(=O)N3` [LabyA1, labyrinthopeptin A1] the EC50 (HSV) was 290 to 2800 nM, the EC50 [1] was 1500 ± 100 nM and the EC50 [2] was 310 nM. The EC50 [3] was 1900 ± 100 nM, the Kd (X4 HIV-1 gp120 IIIB) was 7800 ± 2100 nM and the Kd (R5 HIV-1 gp120 YU2) was 9800 ± 1600 nM. The “cytokine/chemokine response of treated PBMCs” value (PBMCs) was “much weaker, if any”, the EC50 (HSV-1 TK^-) was 1900 nM and the EC50 [4] was 2700 ± 1000 nM. For the same compound, the EC50 [5] was 1600 ± 300 nM, the CC50 [6] was over 48000 nM and the giant cell formation ([7]; 9.6 µM) was “fully protected the cells from giant cell formation”. For the same compound, the “p24 Ag concentration” value ([7]; 9.6 µM) was under 25 pg/mL, the inhibitory effect ([7]; 1.9 and 0.19 µM) was “not detectable” and the “p24 Ag concentration” value ([7]; 1.9 and 0.19 µM) was 393700 pg/mL. The EC50 ([7]; read-out: EC50, DC-SIGN-mediated transmission and subsequent replication of HIV-1, Raji.DC-SIGN/HE cocultured with C8166 T cells, 24 h) was 4100 nM, the “induction of calcium signaling by compound itself” value (CXCR4) was “could not induce by itself calcium signaling” and the “inhibition of SDF-1α (CXCL12)-induced intracellular calcium flux” value (CXCR4; 100 ng/ml SDF-1α) was “could also not inhibit the intracellular calcium flux”. The EC50 [8] was 780 ± 60 nM and the EC50 (HIV-2 ROD (R5/X4)) was 1.9 ± 0.7 µM.

From article PMC3665789 (PLoS ONE, 2013)
